Measurements from article PMC4685510, “A Cell Biologist’s Field Guide to Aurora Kinase Inhibitors” (Frontiers in Oncology, 2015).

Columns and labels:
Test in all cases: biochemical
Type in all cases: biochemical
[1] = target: 363 human kinases (including Aurora A/B/C) (Homo sapiens, UniProt P37173); conditions: TGFBR2; for remaining activity at 0.1 µM: 100 nM; for remaining activity at 0.1 µM / remaining activity at 0.5 µM: read-out: % Enzyme Activity (relative to DMSO controls)
Description: (§1) However, the Aurora A/B selectivity ratios derived from our in vitro and in vivo data can be compared to prioritize inhibitors.

[2] = target: T1, 363 human kinases (including Aurora A/B/C) (Homo sapiens, UniProt P42680); conditions: TEC; for remaining activity at 0.1 µM: 100 nM; for remaining activity at 0.1 µM / remaining activity at 0.5 µM: read-out: % Enzyme Activity (relative to DMSO controls)
T1 sequence (P42680 1-631): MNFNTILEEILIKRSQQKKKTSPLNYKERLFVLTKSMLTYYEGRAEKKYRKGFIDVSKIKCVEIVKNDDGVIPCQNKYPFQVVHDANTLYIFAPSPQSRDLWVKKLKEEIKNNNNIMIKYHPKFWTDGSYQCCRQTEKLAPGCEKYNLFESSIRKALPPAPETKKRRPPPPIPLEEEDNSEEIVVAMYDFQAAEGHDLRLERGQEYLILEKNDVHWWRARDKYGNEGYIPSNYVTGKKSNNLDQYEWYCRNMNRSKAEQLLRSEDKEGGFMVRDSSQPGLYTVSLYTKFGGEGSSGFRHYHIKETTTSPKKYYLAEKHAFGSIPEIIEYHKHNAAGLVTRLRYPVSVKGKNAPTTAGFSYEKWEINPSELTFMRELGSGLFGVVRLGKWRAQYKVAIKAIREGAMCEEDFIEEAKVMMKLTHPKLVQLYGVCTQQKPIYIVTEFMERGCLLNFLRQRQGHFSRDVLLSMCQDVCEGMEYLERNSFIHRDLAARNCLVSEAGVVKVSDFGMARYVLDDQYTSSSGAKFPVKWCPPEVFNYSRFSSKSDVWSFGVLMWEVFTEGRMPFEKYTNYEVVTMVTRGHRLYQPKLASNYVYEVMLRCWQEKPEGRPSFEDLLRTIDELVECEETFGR
Description: as §1

[3] = target: 363 human kinases (including Aurora A/B/C) (Homo sapiens, UniProt P68400); conditions: CK2a, [ATP] 20 µM, read-out: % Enzyme Activity (relative to DMSO controls); for remaining activity at 0.1 µM: 100 nM; for remaining activity at 0.5 µM: 500 nM
Description: as §1

[4] = target: 363 human kinases (including Aurora A/B/C) (Homo sapiens, UniProt Q13464); conditions: ROCK1; for remaining activity at 0.1 µM: 100 nM; for remaining activity at 0.1 µM / remaining activity at 0.5 µM: read-out: % Enzyme Activity (relative to DMSO controls)
Description: as §1

[5] = target: 363 human kinases (including Aurora A/B/C) (Homo sapiens, UniProt Q13557); conditions: CAMK2d, [ATP] 30 µM; for remaining activity at 0.1 µM: 100 nM; for remaining activity at 0.1 µM / remaining activity at 0.5 µM: read-out: % Enzyme Activity (relative to DMSO controls)
Description: as §1

[6] = target: 363 human kinases (including Aurora A/B/C) (Homo sapiens, UniProt Q86UX6); conditions: STK32C/YANK3; for remaining activity at 0.1 µM: 100 nM; for remaining activity at 0.1 µM / remaining activity at 0.5 µM: read-out: % Enzyme Activity (relative to DMSO controls)
Description: as §1

[7] = target: 363 human kinases (including Aurora A/B/C) (Homo sapiens, UniProt Q96RG2); conditions: PASK; for remaining activity at 0.1 µM: 100 nM; for remaining activity at 0.1 µM / remaining activity at 0.5 µM: read-out: % Enzyme Activity (relative to DMSO controls)
Description: as §1

[8] = target: 363 human kinases (including Aurora A/B/C) (Homo sapiens, UniProt Q9H4B4); conditions: PLK3; for remaining activity at 0.1 µM: 100 nM; for remaining activity at 0.1 µM / remaining activity at 0.5 µM: read-out: % Enzyme Activity (relative to DMSO controls)
Description: as §1

[9] = target: 363 human kinases (including Aurora A/B/C) (Homo sapiens, UniProt Q9HBH9); conditions: MNK2; for remaining activity at 0.1 µM: 100 nM; for remaining activity at 0.1 µM / remaining activity at 0.5 µM: read-out: % Enzyme Activity (relative to DMSO controls)
Description: as §1

[10] = target: 363 human kinases (including Aurora A/B/C) (Homo sapiens, UniProt Q9P286); conditions: PAK5; for remaining activity at 0.1 µM: 100 nM; for remaining activity at 0.1 µM / remaining activity at 0.5 µM: read-out: % Enzyme Activity (relative to DMSO controls)
Description: as §1

[11] = target: T2, 363 human kinases (including Aurora A/B/C) (Homo sapiens, UniProt Q9UL54); conditions: TAOK2/TAO1; for remaining activity at 0.1 µM: 100 nM; for remaining activity at 0.1 µM / remaining activity at 0.5 µM: read-out: % Enzyme Activity (relative to DMSO controls)
T2 sequence (Q9UL54 1-1235): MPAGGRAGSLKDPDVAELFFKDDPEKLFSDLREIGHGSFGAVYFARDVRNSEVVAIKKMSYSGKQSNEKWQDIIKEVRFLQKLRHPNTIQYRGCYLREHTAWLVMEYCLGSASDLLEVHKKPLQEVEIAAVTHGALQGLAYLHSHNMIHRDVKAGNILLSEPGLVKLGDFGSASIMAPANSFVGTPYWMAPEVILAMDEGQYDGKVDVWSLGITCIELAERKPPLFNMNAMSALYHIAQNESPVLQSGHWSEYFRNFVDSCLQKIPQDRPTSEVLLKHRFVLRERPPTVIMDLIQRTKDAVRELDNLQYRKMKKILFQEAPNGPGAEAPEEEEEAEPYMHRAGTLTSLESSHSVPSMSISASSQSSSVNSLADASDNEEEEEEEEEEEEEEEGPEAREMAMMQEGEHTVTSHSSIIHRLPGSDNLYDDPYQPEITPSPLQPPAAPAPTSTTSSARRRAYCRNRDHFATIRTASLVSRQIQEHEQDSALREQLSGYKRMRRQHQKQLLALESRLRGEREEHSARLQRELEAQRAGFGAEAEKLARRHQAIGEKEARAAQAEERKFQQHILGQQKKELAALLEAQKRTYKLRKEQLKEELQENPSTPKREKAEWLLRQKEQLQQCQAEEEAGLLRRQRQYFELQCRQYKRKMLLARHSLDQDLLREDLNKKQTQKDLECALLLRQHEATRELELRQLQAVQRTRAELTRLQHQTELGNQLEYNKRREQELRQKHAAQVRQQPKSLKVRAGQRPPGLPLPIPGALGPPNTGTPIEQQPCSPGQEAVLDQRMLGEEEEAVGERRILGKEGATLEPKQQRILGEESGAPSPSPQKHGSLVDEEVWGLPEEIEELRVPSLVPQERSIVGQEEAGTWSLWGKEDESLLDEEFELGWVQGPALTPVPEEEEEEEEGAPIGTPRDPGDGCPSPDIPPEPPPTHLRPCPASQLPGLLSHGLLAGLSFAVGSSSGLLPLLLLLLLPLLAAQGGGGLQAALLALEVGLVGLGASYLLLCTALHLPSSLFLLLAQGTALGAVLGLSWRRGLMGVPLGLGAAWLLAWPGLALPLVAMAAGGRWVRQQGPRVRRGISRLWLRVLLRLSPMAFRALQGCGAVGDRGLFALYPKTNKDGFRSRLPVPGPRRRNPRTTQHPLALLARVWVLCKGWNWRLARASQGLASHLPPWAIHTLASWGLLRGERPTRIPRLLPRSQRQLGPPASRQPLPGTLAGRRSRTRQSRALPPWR
Description: as §1

[12] = target: 363 human kinases (including Aurora A/B/C) (Homo sapiens, UniProt Q9Y6M4); conditions: CK1g3, [ATP] 10 µM; for remaining activity at 0.1 µM: 100 nM; for remaining activity at 0.1 µM / remaining activity at 0.5 µM: read-out: % Enzyme Activity (relative to DMSO controls)
Description: as §1

Sequence of 363 human kinases (including Aurora A/B/C) (Homo sapiens, UniProt Q9H4B4) (Q9H4B4 whole entry): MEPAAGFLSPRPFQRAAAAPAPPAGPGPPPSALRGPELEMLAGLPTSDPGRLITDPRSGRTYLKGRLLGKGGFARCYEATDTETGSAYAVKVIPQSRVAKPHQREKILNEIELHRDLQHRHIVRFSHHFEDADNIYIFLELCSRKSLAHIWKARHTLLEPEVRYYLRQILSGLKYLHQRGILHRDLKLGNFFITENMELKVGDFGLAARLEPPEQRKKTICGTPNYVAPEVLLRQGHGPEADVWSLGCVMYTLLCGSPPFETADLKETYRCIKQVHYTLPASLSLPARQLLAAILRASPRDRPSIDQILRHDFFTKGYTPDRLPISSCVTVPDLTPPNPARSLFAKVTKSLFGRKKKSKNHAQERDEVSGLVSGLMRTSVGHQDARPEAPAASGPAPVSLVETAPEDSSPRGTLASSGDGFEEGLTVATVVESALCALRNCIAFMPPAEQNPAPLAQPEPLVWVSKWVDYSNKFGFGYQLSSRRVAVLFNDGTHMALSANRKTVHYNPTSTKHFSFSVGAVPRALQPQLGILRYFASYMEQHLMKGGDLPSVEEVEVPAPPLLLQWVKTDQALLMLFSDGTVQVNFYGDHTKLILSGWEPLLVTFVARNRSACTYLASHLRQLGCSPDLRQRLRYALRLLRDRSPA
Sequence of 363 human kinases (including Aurora A/B/C) (Homo sapiens, UniProt Q96RG2) (Q96RG2 whole entry): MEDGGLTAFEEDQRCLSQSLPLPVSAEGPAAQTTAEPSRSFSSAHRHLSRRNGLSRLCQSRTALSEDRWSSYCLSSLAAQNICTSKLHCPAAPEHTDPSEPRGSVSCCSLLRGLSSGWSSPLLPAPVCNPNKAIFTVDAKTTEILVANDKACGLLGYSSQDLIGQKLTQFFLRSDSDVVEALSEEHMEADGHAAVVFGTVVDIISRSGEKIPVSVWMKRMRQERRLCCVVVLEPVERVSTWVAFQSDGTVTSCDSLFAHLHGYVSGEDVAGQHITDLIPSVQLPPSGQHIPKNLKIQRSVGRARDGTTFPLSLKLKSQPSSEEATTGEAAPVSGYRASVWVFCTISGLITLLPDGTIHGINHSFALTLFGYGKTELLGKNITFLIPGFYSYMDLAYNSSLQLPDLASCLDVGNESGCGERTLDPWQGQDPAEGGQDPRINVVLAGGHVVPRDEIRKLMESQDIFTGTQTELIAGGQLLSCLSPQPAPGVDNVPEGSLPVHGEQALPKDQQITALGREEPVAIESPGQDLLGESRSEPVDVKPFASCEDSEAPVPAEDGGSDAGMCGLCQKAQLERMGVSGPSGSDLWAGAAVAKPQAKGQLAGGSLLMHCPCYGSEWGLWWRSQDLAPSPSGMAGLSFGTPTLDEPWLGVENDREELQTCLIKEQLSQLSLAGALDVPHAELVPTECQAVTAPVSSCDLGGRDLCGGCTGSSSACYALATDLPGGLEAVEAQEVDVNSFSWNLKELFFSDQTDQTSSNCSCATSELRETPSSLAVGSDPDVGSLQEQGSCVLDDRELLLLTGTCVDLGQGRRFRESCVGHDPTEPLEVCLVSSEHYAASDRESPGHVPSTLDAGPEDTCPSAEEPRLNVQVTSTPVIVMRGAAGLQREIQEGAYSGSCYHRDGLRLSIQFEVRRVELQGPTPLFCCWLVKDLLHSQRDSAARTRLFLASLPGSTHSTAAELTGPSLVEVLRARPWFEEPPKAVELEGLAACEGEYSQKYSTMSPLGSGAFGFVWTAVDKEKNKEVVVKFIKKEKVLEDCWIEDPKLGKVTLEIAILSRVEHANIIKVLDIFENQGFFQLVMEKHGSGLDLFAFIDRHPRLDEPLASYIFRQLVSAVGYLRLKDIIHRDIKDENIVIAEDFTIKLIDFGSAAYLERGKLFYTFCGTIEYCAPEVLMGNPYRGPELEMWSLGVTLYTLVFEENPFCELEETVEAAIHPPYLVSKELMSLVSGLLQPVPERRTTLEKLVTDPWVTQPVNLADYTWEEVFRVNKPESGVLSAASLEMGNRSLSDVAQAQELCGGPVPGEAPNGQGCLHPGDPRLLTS
Sequence of 363 human kinases (including Aurora A/B/C) (Homo sapiens, UniProt Q13464) (Q13464 whole entry): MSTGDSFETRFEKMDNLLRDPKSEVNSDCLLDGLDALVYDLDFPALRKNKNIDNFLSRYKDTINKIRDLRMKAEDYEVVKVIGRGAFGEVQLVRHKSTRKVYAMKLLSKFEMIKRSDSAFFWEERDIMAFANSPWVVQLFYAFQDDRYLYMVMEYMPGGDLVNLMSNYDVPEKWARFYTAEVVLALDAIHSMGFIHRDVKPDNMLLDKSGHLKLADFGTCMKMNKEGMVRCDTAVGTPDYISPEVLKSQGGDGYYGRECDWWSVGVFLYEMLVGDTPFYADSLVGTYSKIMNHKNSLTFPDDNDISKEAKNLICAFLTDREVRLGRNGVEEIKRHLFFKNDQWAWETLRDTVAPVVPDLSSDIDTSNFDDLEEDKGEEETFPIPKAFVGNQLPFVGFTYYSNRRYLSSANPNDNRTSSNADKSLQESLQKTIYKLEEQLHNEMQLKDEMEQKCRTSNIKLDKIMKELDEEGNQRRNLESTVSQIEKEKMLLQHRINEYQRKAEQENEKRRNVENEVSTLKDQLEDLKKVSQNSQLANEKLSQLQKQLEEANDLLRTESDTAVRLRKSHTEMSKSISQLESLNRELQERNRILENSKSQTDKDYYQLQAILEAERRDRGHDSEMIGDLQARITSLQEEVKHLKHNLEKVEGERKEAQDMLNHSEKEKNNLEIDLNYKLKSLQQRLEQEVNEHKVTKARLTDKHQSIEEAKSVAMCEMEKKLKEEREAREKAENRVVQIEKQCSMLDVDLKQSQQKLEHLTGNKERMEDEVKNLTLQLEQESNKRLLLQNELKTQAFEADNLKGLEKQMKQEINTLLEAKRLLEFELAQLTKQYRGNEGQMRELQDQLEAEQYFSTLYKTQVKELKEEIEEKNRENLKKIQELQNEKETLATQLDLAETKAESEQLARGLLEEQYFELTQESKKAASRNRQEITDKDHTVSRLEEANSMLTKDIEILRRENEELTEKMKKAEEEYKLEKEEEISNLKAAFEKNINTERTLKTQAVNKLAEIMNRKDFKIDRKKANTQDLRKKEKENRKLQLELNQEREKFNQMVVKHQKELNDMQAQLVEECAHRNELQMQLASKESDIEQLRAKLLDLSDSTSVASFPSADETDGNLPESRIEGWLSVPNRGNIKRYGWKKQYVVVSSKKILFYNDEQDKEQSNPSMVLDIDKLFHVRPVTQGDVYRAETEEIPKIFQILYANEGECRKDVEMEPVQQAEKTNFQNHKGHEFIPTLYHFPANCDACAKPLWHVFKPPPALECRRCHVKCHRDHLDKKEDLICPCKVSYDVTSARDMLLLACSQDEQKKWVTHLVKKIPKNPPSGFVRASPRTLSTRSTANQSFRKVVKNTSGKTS
Sequence of 363 human kinases (including Aurora A/B/C) (Homo sapiens, UniProt P37173) (P37173 23-567): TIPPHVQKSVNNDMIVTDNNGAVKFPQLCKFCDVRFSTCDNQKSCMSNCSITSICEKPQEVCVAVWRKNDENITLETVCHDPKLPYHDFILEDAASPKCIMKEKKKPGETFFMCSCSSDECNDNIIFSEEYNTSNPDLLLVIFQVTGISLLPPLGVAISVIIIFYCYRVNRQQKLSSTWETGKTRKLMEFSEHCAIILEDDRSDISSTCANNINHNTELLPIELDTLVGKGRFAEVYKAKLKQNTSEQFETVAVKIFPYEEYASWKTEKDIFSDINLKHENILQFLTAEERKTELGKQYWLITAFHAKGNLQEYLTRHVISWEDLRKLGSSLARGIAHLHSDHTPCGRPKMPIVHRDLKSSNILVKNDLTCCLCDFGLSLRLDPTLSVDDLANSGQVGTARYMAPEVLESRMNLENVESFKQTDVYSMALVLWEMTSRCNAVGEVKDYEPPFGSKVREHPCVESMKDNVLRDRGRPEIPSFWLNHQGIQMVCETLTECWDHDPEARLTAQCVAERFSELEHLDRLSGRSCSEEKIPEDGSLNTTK
Sequence of 363 human kinases (including Aurora A/B/C) (Homo sapiens, UniProt Q13557) (Q13557 whole entry): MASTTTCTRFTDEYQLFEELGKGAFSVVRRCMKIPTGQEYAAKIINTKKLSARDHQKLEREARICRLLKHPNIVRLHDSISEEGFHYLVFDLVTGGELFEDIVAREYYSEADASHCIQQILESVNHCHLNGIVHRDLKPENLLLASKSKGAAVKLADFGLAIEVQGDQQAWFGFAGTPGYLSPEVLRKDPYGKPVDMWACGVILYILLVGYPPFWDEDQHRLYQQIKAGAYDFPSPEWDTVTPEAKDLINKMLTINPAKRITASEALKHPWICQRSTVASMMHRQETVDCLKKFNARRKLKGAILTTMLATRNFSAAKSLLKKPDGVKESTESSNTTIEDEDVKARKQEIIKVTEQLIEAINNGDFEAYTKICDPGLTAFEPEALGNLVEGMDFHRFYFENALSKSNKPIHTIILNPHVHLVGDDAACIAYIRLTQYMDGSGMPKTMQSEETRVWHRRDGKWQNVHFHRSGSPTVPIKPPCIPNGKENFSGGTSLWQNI
Sequence of 363 human kinases (including Aurora A/B/C) (Homo sapiens, UniProt Q9P286) (Q9P286 whole entry): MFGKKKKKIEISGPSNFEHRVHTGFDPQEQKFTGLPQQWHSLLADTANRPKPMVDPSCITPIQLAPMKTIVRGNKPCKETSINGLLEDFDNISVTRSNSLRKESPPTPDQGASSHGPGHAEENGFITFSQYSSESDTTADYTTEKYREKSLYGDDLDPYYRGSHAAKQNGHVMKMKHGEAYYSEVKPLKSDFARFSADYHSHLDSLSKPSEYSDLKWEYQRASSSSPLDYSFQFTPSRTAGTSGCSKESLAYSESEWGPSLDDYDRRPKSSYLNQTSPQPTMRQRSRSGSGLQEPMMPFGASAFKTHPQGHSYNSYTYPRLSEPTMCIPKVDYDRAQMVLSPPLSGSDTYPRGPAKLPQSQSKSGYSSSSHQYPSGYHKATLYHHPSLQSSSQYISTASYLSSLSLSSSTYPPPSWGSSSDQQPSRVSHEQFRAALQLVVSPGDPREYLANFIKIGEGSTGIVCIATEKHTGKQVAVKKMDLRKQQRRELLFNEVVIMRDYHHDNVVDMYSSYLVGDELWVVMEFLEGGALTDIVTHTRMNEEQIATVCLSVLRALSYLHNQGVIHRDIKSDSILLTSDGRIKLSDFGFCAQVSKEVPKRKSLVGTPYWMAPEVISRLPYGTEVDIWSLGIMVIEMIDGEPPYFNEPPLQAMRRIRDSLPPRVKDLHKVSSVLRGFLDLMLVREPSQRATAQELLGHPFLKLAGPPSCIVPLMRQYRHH

| SMILES | remaining activity at 0.1 µM [1] [%] | remaining activity at 0.5 µM ([1]; 500 nM) [%] | remaining activity at 0.1 µM [2] [%] | remaining activity at 0.5 µM ([2]; 500 nM) [%] | remaining activity at 0.1 µM [3] [%] | remaining activity at 0.5 µM [3] [%] | remaining activity at 0.1 µM [4] [%] | remaining activity at 0.5 µM ([4]; 500 nM) [%] | remaining activity at 0.1 µM [5] [%] | remaining activity at 0.5 µM ([5]; 500 nM) [%] | remaining activity at 0.1 µM [6] [%] | remaining activity at 0.5 µM ([6]; 500 nM) [%] | remaining activity at 0.1 µM [7] [%] | remaining activity at 0.5 µM ([7]; 500 nM) [%] | remaining activity at 0.1 µM [8] [%] | remaining activity at 0.5 µM ([8]; 500 nM) [%] | remaining activity at 0.1 µM [9] [%] | remaining activity at 0.5 µM ([9]; 500 nM) [%] | remaining activity at 0.1 µM [10] [%] | remaining activity at 0.5 µM ([10]; 500 nM) [%] | also measured |
| --- | --- | --- | --- | --- | --- | --- | --- | --- | --- | --- | --- | --- | --- | --- | --- | --- | --- | --- | --- | --- | --- |
| O=C(O)[C@]1(Cc2cccc(Nc3nccs3)n2)CC[C@@H](Oc2cccc(Cl)c2F)CC1 [MK-5108] | 92.6 | 86.3 | 68.8 | 40.6 | 104 | 105 | 99.8 | 102 | 101 | 98.6 | 124 | 96.6 | 100 | 104 | 103 | 104 | 105 | 95 | 107 | 78.1 | remaining activity at 0.1 µM [11]: 97.5%; remaining activity at 0.5 µM ([11]; 500 nM): 78.1%; remaining activity at 0.1 µM [12]: 100%; remaining activity at 0.5 µM ([12]; 500 nM): 94.6% |
| O=C(c1cccc(Cl)c1F)N1CCN(Cc2cccc(Nc3nccs3)n2)CC1 [MK-8745] |  | 109 |  | 102 |  | 91.9 |  | 98.9 |  | 98.5 |  | 81.5 |  | 103 |  | 102 |  | 97.9 |  | 103 | % Enzyme Activity (relative to DMSO controls) ([1]; 500 nM): 108.29%; % Enzyme Activity (relative to DMSO controls) ([2]; 500 nM): 100.04%; % Enzyme Activity (relative to DMSO controls) ([4]; 500 nM): 98.74%; % Enzyme Activity (relative to DMSO controls) ([5]; 500 nM): 97.95%; % Enzyme Activity (relative to DMSO controls) ([6]; 500 nM): 79.77%; % Enzyme Activity (relative to DMSO controls) ([7]; 500 nM): 101.46%; % Enzyme Activity (relative to DMSO controls) ([8]; 500 nM): 99.37%; % Enzyme Activity (relative to DMSO controls) ([9]; 500 nM): 97.70%; % Enzyme Activity (relative to DMSO controls) ([10]; 500 nM): 92.01%; % Enzyme Activity (relative to DMSO controls) ([11]; 500 nM): 97.14%; remaining activity at 0.5 µM ([11]; 500 nM): 97.6%; % Enzyme Activity (relative to DMSO controls) ([12]; 500 nM): 98.01%; remaining activity at 0.5 µM ([12]; 500 nM): 98.6% |
| CCn1cc(-c2ccnc3[nH]c(-c4cccc(CN(C)C)c4)cc23)c(-c2ccc(NC(=O)N(C)C)cc2)n1 [GSK1070916] | 121 |  | 100 |  | 99.6 |  | 101 |  | 94.6 |  | 79.9 |  | 102 |  | 101 |  | 96.9 |  | 99.9 |  | remaining activity at 0.1 µM [11]: 92.6%; remaining activity at 0.1 µM [12]: 95% |
